Results taken from EP1480941B1, “UREA DERIVATIVES AS HIV ASPARTYL PROTEASE INHIBITORS” (priority 2002, dated 2003).

Tests used:
[1] = test system: laboratory viral strain NL4.3; experiment: Anti-viral assay in vitro (MTT assay on infected MT-4 cells); type: cell-based, HIV-1; details: Human immunodeficiency virus 1, MT4, 144 h, infected MT-4 cells incubated six days, average of at least two determinations
Text: (§1) Anti-viral and cytotoxicity assays in vitro
(§2) We also use some WT clinical strains.

[2] = test system: MT-4; experiment: Cytotoxicity assay in vitro (MTT assay, virus omitted); type: cell-based
Text: as §1, §2

[3] = target: HIV protease (Human immunodeficiency virus type 1 group M subtype B, UniProt P04585); experiment: Enzymatic (fluorometric FRET) assay for determining the inhibition constant (Ki); type: biochemical; details: Ki, EDANS/DABCYL substrate, equation of Henderson
Text: Enzymatic assay for determining the inhibition constant (Ki) of synthetic compounds targeting the HIV protease
This is a fluorometric assay based on the cleavage by protease of a substrate carrying a donor group (EDANS) and an acceptor group (DABCYL) on each side of the cleavage site, interacting together through fluorescence resonance energy transfer (FRET) as described by Matayoshi et al. (Science 247:[…], 1990).
After calculation of Vo and Vi, the inhibition constant (Ki) of the compound is determined using the equation of Henderson: (Vo)/(Vi) = 1 + ([I])/(Kiapp) Where Ki = (Kiapp)/((1 + [S])/(Km)) [formula] where Vo = the enzyme's initial velocity Vi = the enzyme velocity in the presence of the inhibitory compound, [I] = inhibitor concentration, [S] = substrate concentration, Km = Michaelis-Menten constant and Kiapp = apparent Ki
Graphs are traced and the Ki determined using GraphPad Prism software v. 3.0.

[4] = cell culture IC50, same MTT assay with virus omitted, average of at least two determinations

## CC(C)CN([C@H](CO)CCCCNC(=O)N(Cc1ccc(F)cc1)Cc1ccc2c(c1)OCO2)S(=O)(=O)c1ccc(N)cc1 [Example 67, (2S) 2-N-(4-aminobenzenesulfonyl)-2-N-isobutyl-6-N-[N'-(4-fluorobenzyl)-N'-piperonylaminocarbonyl]-2,6-diaminohexanol]
[1]
  EC50: 488 nM
[2]; [4]
  CCIC50: 11 µM

## CC(C)CN([C@H](CO)CCCCNC(=O)N(Cc1ccccc1)Cc1ccc2c(c1)OCO2)S(=O)(=O)c1ccc(N)cc1 [Example 82, (2S) 2-N-(4-aminobenzenesulfonyl)-2-N-isobutyl-6-N-(N'-benzyl-N'-piperonylaminocarbonyl)-2,6-diaminohexanol]
[1]
  EC50: 1400 nM
[2]; [4]
  CCIC50: 12.5 µM

## CC(C)CN([C@H](CO)CCCCNC(=O)N(Cc1ccc2c(c1)OCO2)Cc1ccc2c(c1)OCO2)S(=O)(=O)c1ccc(N)cc1 [Example 85, (2S) 2-N-(4-aminobenzenesulfonyl)-2-N-isobutyl-6-N-(N',N'-dipiperonylaminocarbonyl)-2,6-diaminohexanol]
[1]
  EC50: 130 nM
[2]; [4]
  CCIC50: 13.1 µM

## CC(C)CCN([C@H](CO)CCCCNC(=O)N(Cc1ccncc1)Cc1ccc2c(c1)OCO2)S(=O)(=O)c1ccc(N)cc1 [Example 95, (2S) 2-N-(4-aminobenzenesulfonyl)-2-N-(3-methylbutyl)-6-N-[N'-(4-picolyl)-N'-piperonylaminocarbonyl]-2,6-diaminohexanol]
[1]
  EC50: 550 nM
[2]; human, 6 days
  CCIC50: 28.8 µM
[3]
  Ki: 7.1 nM

## CC(C)CCN([C@H](CO)CCCCNC(=O)N(Cc1ccc(F)cc1)Cc1ccc2c(c1)OCO2)S(=O)(=O)c1ccc(N)cc1 [Example 102, (2S) 2-N-(4-aminobenzenesulfonyl)-2-N-(3-methylbutyl)-6-N-[N'-(4-fluorobenzyl)-N'-piperonylaminocarbonyl]-2,6-diaminohexanol]
[1]
  EC50: 1200 nM
[2]; human, 6 days
  CCIC50: 24.4 µM
[3]
  Ki: 4.9 nM

## COc1cc(CN(Cc2ccc3c(c2)OCO3)C(=S)NCCCC[C@@H](CO)N(CCC(C)C)S(=O)(=O)c2ccc(N)cc2)cc(OC)c1OC [Example 107, (2S) 2-N-(4-aminobenzenesulfonyl)-2-N-(3-methylbutyl)-6-N-[N'-(3,4,5-trimethoxybenzyl)-N'-piperonylaminothiocarbonyl]-2,6-diaminohexanol]
[1]
  EC50: 680 nM
[2]; human, 6 days
  CCIC50: 10.7 µM
[3]
  Ki: 4.9 nM
